Source: the supplement of paper PMC13380429

Key:
Details in all cases: 72 h
[1] = system: U2OS; test: cell viability relative to DMSO; higher = less toxic
[2] = system: HepG2; test: as above
[3] = system: Vero E6; test: as above
[4] = system: Caco-2; test: as above
[5] = system: Calu-3; test: as above
[6] = system: U2OS; test: drug sensitivity score (DSS) for viability; higher = more toxic; extreme values may be limits of the assay
[7] = system: HepG2; test: as above
[8] = system: Vero E6; test: as above
[9] = system: Caco-2; test: as above
[10] = system: Calu-3; test: as above
[11] = system: U2OS; test: relative viability EC50 (midpoint between 100% and the lowest measured viability); higher = less toxic
[12] = system: HepG2; test: as above
[13] = system: Vero E6; test: as above
[14] = system: Caco-2; test: as above
[15] = system: Calu-3; test: as above

Compound | cell viability ([1]; 1 nM) [%] | cell viability ([1]; 10 nM) [%] | cell viability ([1]; 100 nM) [%] | cell viability ([1]; 1000 nM) [%] | cell viability ([1]; 10000 nM) [%] | cell viability ([2]; 1 nM) [%] | cell viability ([2]; 10 nM) [%] | cell viability ([2]; 100 nM) [%] | cell viability ([2]; 1000 nM) [%] | cell viability ([2]; 10000 nM) [%] | cell viability ([3]; 1 nM) [%] | cell viability ([3]; 10 nM) [%] | cell viability ([3]; 100 nM) [%] | cell viability ([3]; 1000 nM) [%] | cell viability ([3]; 10000 nM) [%] | cell viability ([4]; 1 nM) [%] | cell viability ([4]; 10 nM) [%] | cell viability ([4]; 100 nM) [%] | cell viability ([4]; 1000 nM) [%] | cell viability ([4]; 10000 nM) [%] | cell viability ([5]; 1 nM) [%] | cell viability ([5]; 10 nM) [%] | cell viability ([5]; 100 nM) [%] | cell viability ([5]; 1000 nM) [%] | cell viability ([5]; 10000 nM) [%] | drug sensitivity score [6] | drug sensitivity score [7] | drug sensitivity score [8] | drug sensitivity score [9] | drug sensitivity score [10] | relative viability EC50 [11] [µM] | relative viability EC50 [12] [µM] | relative viability EC50 [13] [µM] | relative viability EC50 [14] [µM] | relative viability EC50 [15] [µM]
COc1cc2c(cc1OC)CN(C(=O)[C@@H](NCc1ccncc1)C(C)(C)C)CC2 [TCS-OX2-29] | 94.6 | 100 | 92.6 | 98.3 | 99.7 | 101 | 93.1 | 103 | 94.3 | 102 | 100 | 91.9 | 96.8 | 93.9 | 96.9 | 96.9 | 95.2 | 97.3 | 99.2 | 91.1 | 114 | 88.9 | 103 | 98.6 | 91.7 | 0 | 0 | 0 | 0 | 0 | > 10 | > 10 | > 10 | > 10 | > 10
Cc1[nH]c2ccc(Cl)cc2c1C1=CCNCC1 | 96.5 | 103 | 95.4 | 96.5 | 88.9 | 93.2 | 94.7 | 97.1 | 95.3 | 89.9 | 98.1 | 96.4 | 99.6 | 96 | 91.7 | 95.9 | 102 | 99.4 | 97 | 81.7 | 109 | 106 | 99.8 | 103 | 91.5 | 0 | 0 | 0 | 0.8 | 0 | > 10 | > 10 | > 10 | > 10 | > 10
COc1ccccc1-c1c[nH]c2ncc(-c3cncc(C(=O)N(C)C)c3)cc12 [PPY-A] | 95.4 | 112 | 101 | 101 | 96.4 | 120 | 96.9 | 92.1 | 114 | 99.7 | 95.4 | 100 | 100 | 101 | 112 | 88.4 | 119 | 102 | 106 | 102 | 108 | 96.4 | 95.3 | 115 | 126 | 0 | 0 | 0 | 0 | 0 | > 10 | > 10 | > 10 | > 10 | > 10
O=c1c2ccccc2nc2n1CCc1c-2[nH]c2ccccc12 [rutaecarpine] | 96.5 | 101 | 97 | 106 | 99.8 | 104 | 105 | 98.7 | 93.7 | 76.4 | 103 | 104 | 98.3 | 100 | 98.8 | 102 | 100 | 92.9 | 97.1 | 91.6 | 87 | 102 | 98.8 | 111 | 87.9 | 0 | 1.7 | 0 | 0 | 0 | > 10 | > 10 | > 10 | > 10 | > 10
